The NIST ThermoML archive (doi:10.1021/acs.jced.5b00385)
± gives the expanded uncertainty stated by the source.

Conditions: Liquid, Vibrating tube method

COCCOC(C)=O [2-methoxyethyl ethanoate]
Conditions | mass density [kg/m3]
283.47 K, 100 kPa | 1015.98 ± 1
283.47 K, 1000 kPa | 1016.6 ± 1
283.47 K, 3000 kPa | 1018.02 ± 1
283.47 K, 5000 kPa | 1019.43 ± 1
283.47 K, 10000 kPa | 1022.82 ± 1.1
283.47 K, 20000 kPa | 1029.33 ± 1.1
283.47 K, 25000 kPa | 1032.44 ± 1.1
283.47 K, 30000 kPa | 1035.47 ± 1.1
283.47 K, 40000 kPa | 1041.29 ± 1.1
283.47 K, 50000 kPa | 1046.81 ± 1.1
283.47 K, 60000 kPa | 1052.11 ± 1.1
283.47 K, 70000 kPa | 1057.33 ± 1.1
283.47 K, 80000 kPa | 1062.12 ± 1.2
283.47 K, 100000 kPa | 1071.34 ± 1.2
283.48 K, 15000 kPa | 1026.12 ± 1.1
283.48 K, 90000 kPa | 1066.8 ± 1.2
293.45 K, 100 kPa | 1005.18 ± 1
293.45 K, 1000 kPa | 1005.85 ± 1
293.45 K, 3000 kPa | 1007.33 ± 1
293.45 K, 5000 kPa | 1008.8 ± 1
293.45 K, 10000 kPa | 1012.42 ± 1
293.45 K, 15000 kPa | 1015.91 ± 1
293.45 K, 20000 kPa | 1019.32 ± 1.1
293.45 K, 25000 kPa | 1022.58 ± 1.1
293.45 K, 30000 kPa | 1025.8 ± 1.1
293.45 K, 40000 kPa | 1031.92 ± 1.1
293.45 K, 50000 kPa | 1037.72 ± 1.1
293.45 K, 60000 kPa | 1043.26 ± 1.1
293.45 K, 70010 kPa | 1048.51 ± 1.1
293.45 K, 90000 kPa | 1058.45 ± 1.2
293.46 K, 80010 kPa | 1053.61 ± 1.1
293.46 K, 100000 kPa | 1063.15 ± 1.2
303.37 K, 100 kPa | 993.64 ± 1
303.37 K, 5000 kPa | 997.55 ± 1
303.37 K, 25000 kPa | 1012.15 ± 1
303.37 K, 90010 kPa | 1049.67 ± 1.1
303.38 K, 1000 kPa | 994.33 ± 1
303.38 K, 3000 kPa | 995.95 ± 1
303.38 K, 10000 kPa | 1001.38 ± 1
303.38 K, 15000 kPa | 1005.07 ± 1
303.38 K, 20000 kPa | 1008.68 ± 1
303.38 K, 30000 kPa | 1015.48 ± 1
303.38 K, 40000 kPa | 1021.92 ± 1.1
303.38 K, 50000 kPa | 1027.99 ± 1.1
303.38 K, 60000 kPa | 1033.79 ± 1.1
303.38 K, 70000 kPa | 1039.34 ± 1.1
303.38 K, 80000 kPa | 1044.62 ± 1.1
303.38 K, 100000 kPa | 1054.53 ± 1.2
313.28 K, 25000 kPa | 1002.26 ± 1
313.29 K, 100 kPa | 982.6 ± 1
313.29 K, 20000 kPa | 998.59 ± 1
313.3 K, 1000 kPa | 983.35 ± 1
313.3 K, 3000 kPa | 985.09 ± 1
313.3 K, 5000 kPa | 986.8 ± 1
313.3 K, 10000 kPa | 990.88 ± 1
313.3 K, 15000 kPa | 994.81 ± 1
313.3 K, 30000 kPa | 1005.78 ± 1
313.3 K, 40000 kPa | 1012.55 ± 1
313.3 K, 50000 kPa | 1018.92 ± 1.1
313.3 K, 60000 kPa | 1024.91 ± 1.1
313.3 K, 70000 kPa | 1030.73 ± 1.1
313.3 K, 80000 kPa | 1036.18 ± 1.1
313.3 K, 90000 kPa | 1041.42 ± 1.1
313.3 K, 100000 kPa | 1046.43 ± 1.2
323.14 K, 100 kPa | 971.53 ± 0.99
323.14 K, 1000 kPa | 972.34 ± 0.99
323.14 K, 3000 kPa | 974.16 ± 1
323.15 K, 5000 kPa | 975.96 ± 1
323.15 K, 10000 kPa | 980.29 ± 1
323.15 K, 15000 kPa | 984.47 ± 1
323.15 K, 20000 kPa | 988.47 ± 1
323.15 K, 25000 kPa | 992.34 ± 1
323.15 K, 70000 kPa | 1022.15 ± 1.1
323.15 K, 80000 kPa | 1027.84 ± 1.1
323.15 K, 90000 kPa | 1033.26 ± 1.1
323.15 K, 100000 kPa | 1038.48 ± 1.1
323.16 K, 30000 kPa | 996.08 ± 1
323.16 K, 40000 kPa | 1003.14 ± 1
323.16 K, 50000 kPa | 1009.8 ± 1
323.16 K, 60000 kPa | 1016.1 ± 1.1
333.01 K, 100 kPa | 960.32 ± 0.98
333.01 K, 1000 kPa | 961.21 ± 0.98
333.01 K, 3000 kPa | 963.17 ± 0.99
333.01 K, 50000 kPa | 1000.75 ± 1
333.01 K, 60000 kPa | 1007.3 ± 1.1
333.02 K, 5000 kPa | 965.08 ± 0.99
333.02 K, 10000 kPa | 969.69 ± 0.99
333.02 K, 15000 kPa | 974.13 ± 1
333.02 K, 20000 kPa | 978.36 ± 1
333.02 K, 25000 kPa | 982.46 ± 1
333.02 K, 30000 kPa | 986.35 ± 1
333.02 K, 40000 kPa | 993.79 ± 1
333.02 K, 70000 kPa | 1013.7 ± 1.1
333.02 K, 80000 kPa | 1019.56 ± 1.1
333.02 K, 90000 kPa | 1025.22 ± 1.1
333.02 K, 100000 kPa | 1030.6 ± 1.1
342.87 K, 1000 kPa | 949.88 ± 0.97
342.88 K, 100 kPa | 948.92 ± 0.97
342.88 K, 3000 kPa | 951.95 ± 0.98
342.89 K, 5000 kPa | 953.98 ± 0.98
342.89 K, 10000 kPa | 958.88 ± 0.98
342.89 K, 15000 kPa | 963.56 ± 0.99
342.89 K, 20000 kPa | 968.04 ± 1
342.89 K, 25000 kPa | 972.33 ± 1
342.9 K, 30000 kPa | 976.44 ± 1
342.9 K, 40000 kPa | 984.26 ± 1
342.9 K, 50000 kPa | 991.52 ± 1
342.9 K, 60000 kPa | 998.35 ± 1
342.9 K, 70000 kPa | 1005.1 ± 1.1
342.9 K, 80010 kPa | 1011.23 ± 1.1
342.9 K, 90000 kPa | 1017.07 ± 1.1
342.9 K, 100000 kPa | 1022.63 ± 1.1
352.77 K, 10000 kPa | 948.28 ± 0.98
352.77 K, 15000 kPa | 953.26 ± 0.98
352.77 K, 20000 kPa | 958 ± 0.99
352.78 K, 25000 kPa | 962.53 ± 0.99
352.78 K, 30000 kPa | 966.88 ± 1
352.78 K, 40000 kPa | 975.07 ± 1
352.78 K, 50000 kPa | 982.69 ± 1
352.78 K, 60000 kPa | 989.8 ± 1
352.79 K, 100 kPa | 937.57 ± 0.96
352.79 K, 1000 kPa | 938.6 ± 0.96
352.79 K, 3000 kPa | 940.86 ± 0.97
352.79 K, 5000 kPa | 943.03 ± 0.97
352.79 K, 70000 kPa | 996.7 ± 1
352.79 K, 80000 kPa | 1003.07 ± 1.1
352.79 K, 90000 kPa | 1009.1 ± 1.1
352.79 K, 100000 kPa | 1014.88 ± 1.1
362.64 K, 100 kPa | 926.12 ± 0.95
362.64 K, 1000 kPa | 927.21 ± 0.95
362.64 K, 3000 kPa | 929.6 ± 0.95
362.64 K, 5000 kPa | 931.91 ± 0.96
362.64 K, 15000 kPa | 942.8 ± 0.97
362.64 K, 50000 kPa | 973.78 ± 1
362.65 K, 10000 kPa | 937.52 ± 0.97
362.65 K, 20000 kPa | 947.84 ± 0.98
362.65 K, 25000 kPa | 952.6 ± 0.99
362.65 K, 30000 kPa | 957.19 ± 0.99
362.65 K, 40000 kPa | 965.79 ± 1
362.65 K, 60000 kPa | 981.22 ± 1
362.65 K, 70000 kPa | 988.32 ± 1
362.65 K, 80000 kPa | 994.92 ± 1.1
362.65 K, 90000 kPa | 1001.16 ± 1.1
362.65 K, 100000 kPa | 1007.15 ± 1.1
